Test results taken from patent US20180284132A1, “KITS FOR STRATIFYING SCOLIOTIC SUBJECTS” (CHU SAINTE-JUSTINE, priority 2013, published 2018).

Assays:
[1] = test system: response to Gi stimulation; assay: Effect of serine/threonine kinase inhibitors on response to Gi stimulation in osteoblasts (CDS); format: cell-based, human; settings: inhibitor 5 μM, 1 hour before agonist
Experimental: FIG. 13A-FIG. 13B show the effect of various serine/threonine kinase inhibitors on response to Gi stimulation in osteoblasts from control and AIS functional groups. Cells were treated with Protein kinase A (PKA) inhibitor H89 (5 μM), Protein kinase C (PKC) inhibitor Gö6983 (5 μM), Ca^2+/calmodulin-dependent protein kinase (CaMK) (1,2,4) inhibitor STO-609 acetate (5 μM), Ca^2+/calmodulin-dependent protein kinase II (CaMK-2) inhibitor KN93 (5 μM), Casein kinase 1 (CK1) inhibitor D4476 (5 μM) or vehicle for 1 hour prior to stimulation with (FIG. 13A) LPA (10^−6 M) or (FIG. 13B) Somatostatin (10^−6 M). Response to Gi stimulation was measured by CDS. Data were normalised to response in osteoblasts treated with vehicle (% response in presence of vehicle shown on the y-axis and measured by CDS), and are expressed as mean±SE, of n=12 patients in each functional group. * P<0.05, **P<0.01, ***P<0.001, vs control group.
(§1) The functionality of Gi, Gs and Gq proteins was evaluated by CDS assay in osteoblasts, and the functionality of Gi was also evaluated by CDS assay in myoblasts and PBMCs from the same individuals, using CellKey™ apparatus, as previously described (Akoume et al., 2010 and WO 2010/040234, 2010 to Moreau et al.).
In order to identify putative serine/threonine kinases phosphorylating Gi isoforms in AIS, control and AIS osteoblasts were treated with a panel of serine/threonine kinase inhibitors prior to their stimulation with two distinct agonists (LPA and somatostatin). Of note, Gi stimulation induced via LPA or somatostatin receptor activation by their agonists in control osteoblasts was not affected by any kinase inhibitor (FIG. 13A-FIG. 13B). […] Cellular response in FG3 osteoblasts was not improved by inhibition of neither of PKC nor CaMK.

[2] = test system: melatonin receptor; assay: Cellular response of osteoblasts to melatonin receptor agonists, cellular dielectric spectroscopy (CDS); format: cell-based, human; settings: for order of agonist potency: response at maximum concentration (10 μM), osteoblasts of control and AIS groups
Experimental: (§2) Data were normalised to maximal response (% maximal response) in cells from control subjects. […] The impedance represented in y-axis as dZiec, indicates the resistance (ohms) of the cells toward the electric current applied by the Cellkey™ apparatus and represents the integrated cellular response. […] Cellular responses shown on the y-axis in (FIG. 3A) to (FIG. 3E) were measured by CDS.
Osteoblasts were isolated from bone specimens obtained intraoperatively from vertebras (varying from T3 to L4 according to the surgical procedure performed) and from other anatomical sites (tibia or femur) in AIS patients and trauma control cases, respectively as previously described (Moreau et al., 2004).
as §1
The response produced with their maximum concentration (10 μM) in osteoblasts from control subjects and AIS patients of each functional group was compared.

[3] = test system: beta-adrenergic receptor; assay: Functional status of Gs protein in osteoblasts, isoproterenol challenge (CDS); format: cell-based, human
Experimental: as §1

[4] = test system: melatonin receptor; settings: normal osteoblasts; CDS (Akoume et al., 2010); cited from earlier work
[5] = test system: response to Gi stimulation; assay: Effect of Gi and Gs siRNA on response to Gi stimulation in osteoblasts (CDS); format: cell-based, human
Experimental: FIG. 12A-FIG. 12H show the differential effects of Gi and Gs siRNA on response to Gi stimulation in AIS functional groups. Osteoblasts from (FIG. 12A) control subjects, (FIG. 12B) FG3, (FIG. 12C) FG2; and (FIG. 12D) FG1 were transfected with Gi1, Gi2, Gi3 or Gs siRNA alone or in combination, or with scrambled siRNA, as indicated in Example 1—Materials and Methods. Efficiency of siRNA was verified with qPCR in each functional group (FIG. 12E to FIG. 12H) 48 hours after transfection, and response to Gi stimulation was measured by CDS and evaluated by challenging cells with Apelin-17, LPA or Somatostatin. Results from a single representative subject for each group are presented. Data were normalised to response in cells transfected with scrambled siRNA (% response shown on the y-axis and measured by CDS), and are expressed as mean±SE, of n=6 patients in each functional group. * P<0.05, **P<0.01, ***P<0.001, vs. control group.
as §1
All Gi1, Gi2, Gi3, Gs and scrambled siRNA were obtained from Ambion (Ambion USA). Osteoblasts from control subjects and AIS patients were transiently transfected in serum-free medium, using Lipofectamine RNAiMAX™ reagent (Invitrogen) according to the manufacturer's instructions and functional experiments were performed 48 h post transfection. The gene knockdown was evaluated by quantitative real-time PCR (qPCR).
Silencing of each gene reduced by 75-85% the expression of the corresponding mRNA in osteoblasts from control and the three AIS groups (FIGS. 12E-H). […] The response to each tested agonist was reduced by at least 75% by silencing Gi3 alone in FG2 osteoblasts (FIG. 12C), and by 90% by silencing Gi1 alone in FG3 osteoblasts ([…]) confirming that the residual response to Gi stimulation is mediated by Gi3 and Gi1 isoforms in FG2 and FG3 groups, respectively. In FG1 osteoblasts, response to each agonist was reduced by 50% following the depletion of all Gi isoforms by siRNA, and was not affected by the knockdown of individual Gi isoforms ([…]).

[6] = test system: Gi proteins; assay: Inhibition by GPAnt-2 or pertussis toxin of osteoblast response to Gi-coupled receptor agonists (CDS); format: cell-based, human; settings: for effect on cellular response to melatonin: 16 hours
Experimental: as §2, §1

Compound: NC(=O)c1ccc(-c2nc(-c3ccc4c(c3)OCCO4)c(-c3ccccn3)[nH]2)cc1 [D4476]
- effect on response to Gi stimulation via LPA or somatostatin ([1]; FG1 osteoblasts): increased response
- effect on response to Gi stimulation via LPA or somatostatin ([1]; FG3 osteoblasts): increased response

Compound: COc1ccc2c(c1)c(C1=C(c3c[nH]c4ccccc34)C(=O)NC1=O)cn2CCCN(C)C [Gö8963, Gö6983]
- effect on response to Gi stimulation via LPA or somatostatin ([1]; FG1 osteoblasts): significantly increased
- effect on response to Gi stimulation via LPA or somatostatin ([1]; FG2 osteoblasts): devoid of significant effect
- effect on response to Gi stimulation via LPA or somatostatin ([1]; FG3 osteoblasts): not improved

Compound: O=S(=O)(NCCNC/C=C/c1ccc(Br)cc1)c1cccc2cnccc12 [H89]
- effect on response to Gi stimulation via LPA or somatostatin ([1]; FG1 osteoblasts): increased the signalling response
- effect on response to Gi stimulation via LPA or somatostatin ([1]; FG2 osteoblasts): increased the signalling response
- effect on response to Gi stimulation via LPA or somatostatin ([1]; FG3 osteoblasts): increased the signalling response

Compound: COc1ccc(S(=O)(=O)N(CCO)c2ccccc2CN(C)C/C=C/c2ccc(Cl)cc2)cc1 [KN93]
- effect on response to Gi stimulation via LPA or somatostatin ([1]; FG1 osteoblasts): unaffected
- effect on response to Gi stimulation via LPA or somatostatin ([1]; FG2 osteoblasts): increased the signalling response
- effect on response to Gi stimulation via LPA or somatostatin ([1]; FG3 osteoblasts): not improved

Compound: COc1ccc2[nH]c(I)c(CCNC(C)=O)c2c1 [iodomelatonin]
- order of agonist potency [2]: phenylmelatonin>iodomelatonin>melatonin

Compound: CC(C)NCC(O)c1ccc(O)c(O)c1 (stereo not shown) [isoproterenol]
- cellular response, AIS osteoblasts vs control osteoblasts [3]: significantly enhanced

Compound: COc1ccc2[nH]cc(CCNC(C)=O)c2c1 [melatonin]
- concentration at which the response reaches a plateau ([2]; osteoblasts, all control and AIS groups): 1 µM
- cellular response to melatonin ([2]; osteoblasts, all control and AIS groups, CDS): concentration-dependent increase of response
- order of magnitude of the maximum response from highest to lowest ([2]; osteoblasts, control vs AIS functional groups): control group, FG3, FG2 and FG1
- order of agonist potency [2]: phenylmelatonin>iodomelatonin>melatonin
- G protein dependence of cellular response to melatonin receptor stimulation [4]: mainly Gi-dependent in normal osteoblasts

Compound: COc1ccc2[nH]c(-c3ccccc3)c(CCNC(C)=O)c2c1 [phenylmelatonin]
- order of agonist potency [2]: phenylmelatonin>iodomelatonin>melatonin

Compound: Gi2 siRNA: siRNA from Ambion, GAGGACCUGAAUAAGCGCAAAGACA (SEQ ID NO: 98)
- reduction of response to each tested agonist ([5]; control group osteoblasts): not significantly affected

Compound: Gs siRNA: siRNA from Ambion, ACAACAUGGUCAUCCGGGAGGACAA (SEQ ID NO: 100)
- reduction of response to each tested agonist ([5]; FG1 osteoblasts): 50%
- reduction of response to each tested agonist ([5]; FG2 osteoblasts): devoid of effect
- reduction of response to each tested agonist ([5]; FG3 osteoblasts): devoid of effect
- reduction of response to each tested agonist ([5]; control group osteoblasts): devoid of effect

Compound: STO-609 acetate
- effect on response to Gi stimulation via LPA or somatostatin ([1]; FG1 osteoblasts): significantly increased
- effect on response to Gi stimulation via LPA or somatostatin ([1]; FG2 osteoblasts): increased the signalling response
- effect on response to Gi stimulation via LPA or somatostatin ([1]; FG3 osteoblasts): not improved

Compound: pertussis toxin [PTX]
- effect on cellular response to melatonin ([6]; FG1 osteoblasts, maximal concentration): enhanced the response to melatonin
- effect on cellular response to melatonin ([6]; FG2 and FG3 osteoblasts, increasing concentration): reduced the cellular response to melatonin
- effect on response to mastoparan ([6]; high concentrations, all AIS and control groups): almost abolished
- inhibition curve patterns ([6]; response to any of the five synthetic agonists, osteoblasts (GPAnt-2 4 h, PTX 16 h)): curve patterns similar to those obtained with melatonin
